In article PMC9299640, “Incorporation of β‐Alanine in Cu(II) ATCUN Peptide Complexes Increases ROS Levels, DNA Cleavage and Antiproliferative Activity” (Chemistry (Weinheim an Der Bergstrasse, Germany), 2021):

Legend:
HCT116 cells = assay: Cellular uptake of Cu by ICP-MS; assay type: cell-based, human; settings: 70 µM, 24 h, 37 °C, 5% CO2, 4 × 10^5 cells/well, HNO3 lysis, corrected for cell-free wells, n = 3
Protocol: We aimed to correlate the antiproliferative activity to the accumulation of Cu in HCT116 cells. Therefore, cells were treated for 24 h with complexes Cu−GGH, 1, 3, 4 and CuCl2 (70 μM), and the Cu content of the samples was determined by ICP‐MS (Table S13). […] The higher Cu contents probably lead to enhanced oxidative stress levels in cells, which consequently results in higher antiproliferative activity.
The antiproliferative activity of selected Cu(II) ATCUN complexes was investigated towards different tumor cell lines (HCT116, NCI-H460, SiHa and SW480 cells) and expressed as the IC50 values. Additionally, cellular uptake studies in HCT116 tumor cells were carried out and the amount of Cu was determined with inductively coupled plasma mass spectrometry (ICP-MS).
Table S13. […]
with 0.4% sulforhodamine B (Sigma-Aldrich) in 1% acetic acid for 30 min in the dark at room temperature and then washed with 1% acetic acid to remove unbound dye. The stain was dissolved in unbuffered Tris base (10 mM, Serva) for 30 min on a plate shaker in the dark and quantified on a BioTek EL808 microplate reader at an absorbance of 490 nm with a reference wavelength of 450 nm to determine the percentage of cell-growth inhibition by determining the absorbance of each sample relative to a negative (no inhibitor) and a no-growth control (day 0). […]

CT-DNA = assay: DNA melting curves by UV/VIS spectroscopy; assay type: binding, calf

[Cl][Cu][Cl] [CuCl2, reference compound]
accumulated Cu in HCT116 (HCT116 cells): 0.754 ± 0.010 μg/4 × 10^5 cells
ΔTm relative to CT-DNA (CT-DNA; 2.5 µM complex or CuCl2, CT-DNA 50 µM (ref. Tm 78.3 °C), MOPS 50 mM pH 7.4): 3.2 °C
Tm of CT-DNA after treatment (CT-DNA; 2.5 µM complex or CuCl2, CT-DNA 50 µM, MOPS 50 mM pH 7.4, 260 nm, 0.5 °C/min, Cu(II):peptide 1:1.05): 81.5 °C
